According to article PMC6158578, “Optimization and Lead Selection of Benzothiazole Amide Analogs Toward a Novel Antimycobacterial Agent” (Frontiers in Microbiology, 2018):
In brackets after ≈: the same amount, converted by molar mass. Like-named read-outs stand apart in the source and are kept apart here.

Legend:
[1] = test system: M. abscessus (n = 20) clinical isolates; assay: MIC against rapid-growing NTM clinical isolates; type: cell-based; settings: for MIC range: M. abscessus (n = 20); for MIC90: Mycobacteroides abscessus
[2] = test system: M. chelonae (n = 11) clinical isolates; assay: MIC against rapid-growing NTM clinical isolates; type: cell-based; settings: for MIC range: M. chelonae (n = 11); for MIC90: Mycobacteroides chelonae
M. intracellulare 1956 = assay: MIC, Middlebrook medium (7H9 + OADC, 7 days); type: cell-based; settings: Mycobacterium intracellulare, 1956, 168 h
[3] = test system: M. abscessus massiliense 119; assay: MIC, broth microdilution with resazurin (MHB, 3 days); type: cell-based; settings: Mycobacteroides abscessus
[4] = test system: M. fortuitum (n = 11) clinical isolates; assay: MIC against rapid-growing NTM clinical isolates; type: cell-based; settings: for MIC range: M. fortuitum (n = 11); for MIC90: Mycolicibacterium fortuitum
S. pyogenes ATCC 19615 = assay: MIC, spectrum of activity; type: cell-based; settings: Streptococcus pyogenes, ATCC19615
M. chimaera 1502055 = assay: MIC, Middlebrook medium (7H9 + OADC, 7 days); type: cell-based; settings: 1502055, 168 h
Other NTM (n = 12) = assay: MIC against rapid-growing NTM clinical isolates; type: cell-based; settings: for MIC range: Other NTM (n = 12)
[5] = test system: E. coli tolC CGSC 5633 (efflux mutant strain); assay: microbe, parasite or virus in culture; type: cell-based; settings: Escherichia coli
C. albicans ATCC 10231 = assay: MIC, spectrum of activity; type: cell-based; settings: Candida albicans, ATCC10231
[6] = 50% complement-inactivated human serum
S. pneumoniae ATCC 49619 = assay: MIC, spectrum of activity; type: cell-based; settings: Streptococcus pneumoniae, ATCC49619
[7] = test system: M. tuberculosis H37Rv mc^2 6206; assay: microbe, parasite or virus in culture; type: cell-based; settings: Mycobacterium tuberculosis
P. aeruginosa ATCC 35151 = assay: MIC, spectrum of activity; type: cell-based; settings: Pseudomonas aeruginosa, ATCC35151
HepG2 cytotoxicity, 72 h = type: cell-based; settings: human, HepG2 cells, HepG2, 72 h, read-out: HepG2 cytotox., IC50
Method: (§1) ADMET assays were performed through NIAID Preclinical Services and Eurofins. Potential for cytotoxicity was monitored in HepG2 cells after 72 h growth in the presence of test compounds, either prepared as 10-point 3-fold serial dilutions or at a fixed 10 μM concentration. Cell viability was measured using the CellTiter-Glo® Luminescent Cell Viability Assay (Promega) or via fluorescent image analysis. Cytotoxicity was expressed as IC50 or as percent reduction of viable cells relative to a reference compound. Metabolic stability of compounds was evaluated via incubation with human liver microsomes at 37°C and quantitative analysis of parent compound by LC-MS/MS in samples removed at 0, 5, 15, 30, and 45 min (Obach, [1999]). For cytochrome P450 (CYP) inhibition assays, compounds were prepared as a 7-point dilution series and incubated with human liver microsomes in buffer containing 2 mM NADPH and probe substrate. […] Thermodynamic solubility of compounds in aqueous media was determined by incubation in 50 mM potassium phosphate buffer (pH 7.4) for 24 h, followed by HPLC-UV detection of compound in the filtrate (Analiza, Cleveland, OH, United States).

physchem = type: physicochemical; settings: pH 7.4, aqueous buffer, thermodynamic from solid
Method: as §1

S. aureus ATCC 29213 = assay: MIC, spectrum of activity; type: cell-based; settings: Staphylococcus aureus, ATCC29213
[8] = test system: E. coli ATCC 25922 + PMBN (permeabilized); assay: MIC, spectrum of activity; type: cell-based; settings: Escherichia coli, ATCC25922
M. fortuitum 41 = assay: MIC, broth microdilution with resazurin (MHB, 3 days); type: cell-based; settings: Mycolicibacterium fortuitum, 41
M. abscessus 1 = assay: MIC in MHB versus 7H9+OADC; type: cell-based
CYP2B6 = molecular target: T1, CYP2B6 (Homo sapiens, UniProt P20813); assay: CYP inhibition in human liver microsomes; type: in vitro ADME
T1 construct: incubated with human liver microsomes in buffer containing 2 mM NADPH and probe substrate; from tissue; host or cells: human liver microsomes
T1 sequence (P20813 1-491): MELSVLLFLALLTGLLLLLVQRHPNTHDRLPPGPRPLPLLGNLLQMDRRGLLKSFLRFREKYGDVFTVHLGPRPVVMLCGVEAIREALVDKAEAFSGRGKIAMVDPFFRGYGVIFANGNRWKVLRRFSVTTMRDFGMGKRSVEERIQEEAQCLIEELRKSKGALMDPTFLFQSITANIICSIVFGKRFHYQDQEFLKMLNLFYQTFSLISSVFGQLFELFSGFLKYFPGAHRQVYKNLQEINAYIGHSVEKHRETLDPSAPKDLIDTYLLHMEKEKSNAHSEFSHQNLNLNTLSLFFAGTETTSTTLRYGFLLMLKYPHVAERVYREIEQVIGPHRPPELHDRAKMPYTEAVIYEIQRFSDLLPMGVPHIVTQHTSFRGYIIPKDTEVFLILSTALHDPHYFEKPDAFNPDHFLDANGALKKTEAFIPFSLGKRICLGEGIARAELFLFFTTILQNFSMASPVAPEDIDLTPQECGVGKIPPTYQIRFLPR
Method: as §1

CYP3A = assay: CYP inhibition in human liver microsomes; type: in vitro ADME
Method: as §1

M. abscessus 79 = assay: MIC in MHB versus 7H9+OADC; type: cell-based
M. abscessus ATCC 19977 = assay: MIC, broth microdilution with resazurin (MHB, 3 days); type: cell-based; settings: Mycobacteroides abscessus, ATCC19977
M. avium 101 = assay: MIC, Middlebrook medium (7H9 + OADC, 7 days); type: cell-based; settings: Mycobacterium avium, 101, 168 h
M. abscessus 21 = assay: MIC in MHB versus 7H9+OADC; type: cell-based
M. chelonae 93 = assay: MIC, broth microdilution with resazurin (MHB, 3 days); type: cell-based; settings: Mycobacteroides chelonae, 93
[9] = test system: M. peregrinum ATCC 700686; assay: as above; type: cell-based; settings: Mycolicibacterium peregrinum, ATCC700686
E. faecalis ATCC 29212 = assay: MIC, spectrum of activity; type: cell-based; settings: Enterococcus faecalis, ATCC29212
rapid-growing NTM = assay: MIC against rapid-growing NTM; type: cell-based; settings: read-out: MIC values against rapid-growing NTM
Mabs 21 = assay: Time-kill assay; type: cell-based, M. abscessus; settings: 10x MIC
[10] = test system: Anaerobes (n > 20 strains); assay: organism not typed; type: cell-based
M. avium complex (MAC) = assay: MIC against MAC; type: cell-based; settings: Mycobacterium avium, read-out: MIC against MAC
[11] = type: cell-based
[12] = M. abscessus 1, 7H9 + OADC (5 mg/mL albumin)
[13] = M. abscessus 79, 7H9 + OADC (5 mg/mL albumin)
[14] = M. abscessus 21, 7H9 + OADC (5 mg/mL albumin)

CC12CCCC(C(=O)Nc3nc4ccc(OC(F)(F)F)cc4s3)(CCC1)C2 [CRS400359]
MIC range [1]: 0.06 to 2 µg/mL | MIC90 [1]: 0.25 µg/mL (≈ 0.627 µM) | MIC range [2]: 0.25 to 0.5 µg/mL | MIC90 [2]: 0.25 µg/mL (≈ 0.627 µM) | MIC (M. intracellulare 1956): 2 µg/mL | MIC [3]: ≤ 0.06 µg/mL | MIC range [4]: 0.06 to 1 µg/mL | MIC90 [4]: 1 µg/mL (≈ 2.51 µM) | MIC (S. pyogenes ATCC 19615): > 64 µg/mL | MIC (M. chimaera 1502055): 2 µg/mL | MIC90 (Other NTM (n = 12)): 0.5 µg/mL (≈ 1.25 µM) | MIC range (Other NTM (n = 12)): 0.12 to 2 µg/mL | MIC [5]: > 64 µg/mL | MIC (C. albicans ATCC 10231): 64 µg/mL (≈ 161 µM) | Protein (serum) binding [6]: >95% | MIC (S. pneumoniae ATCC 49619): 32 µg/mL (≈ 80.3 µM) | MIC ([7]; 168 h): 0.5 µg/mL (≈ 1.25 µM) | MIC (P. aeruginosa ATCC 35151): 64 µg/mL (≈ 161 µM) | IC50 at 72 h (HepG2 cytotoxicity, 72 h): 10 µM | IC50 at 72 h (HepG2 cytotoxicity, 72 h; value in brackets): 4 µg/mL | solubility at 24 h (physchem): < 3 µM | MIC (S. aureus ATCC 29213): > 64 µg/mL | MIC [8]: > 64 µg/mL | MIC (M. fortuitum 41): 0.12 µg/mL (≈ 0.301 µM) | MIC (M. abscessus 1; [12]): 1 µg/mL | MIC (M. abscessus 1; M. abscessus 1, MHB): 0.06 µg/mL (≈ 0.151 µM) | inhibition at 10 µM (CYP2B6): 30% | inhibition at 10 µM (CYP3A): 0% | MIC (M. abscessus 79; [13]): 0.25 µg/mL | MIC (M. abscessus 79; M. abscessus 79, MHB): 0.06 µg/mL (≈ 0.151 µM) | MIC (M. abscessus ATCC 19977): ≤ 0.06 µg/mL | MIC (M. avium 101): 2 µg/mL | MIC (M. abscessus 21; [14]): 2 µg/mL | MIC (M. abscessus 21; M. abscessus 21, MHB): 0.06 µg/mL (≈ 0.151 µM) | MIC (M. chelonae 93): 0.12 µg/mL (≈ 0.301 µM) | MIC [9]: 0.12 µg/mL (≈ 0.301 µM) | MIC (E. faecalis ATCC 29212): > 64 µg/mL

CC12CCCC(C(=O)Nc3nc4cc(Cl)cc(Cl)c4s3)(CCC1)C2 [CRS400393]
MIC range [1]: ≤ 0.03 to 0.25 µg/mL | MIC90 [1]: 0.25 µg/mL (≈ 0.652 µM) | MIC range [2]: 0.12–0.12 μg/mL | MIC90 [2]: 0.12 µg/mL (≈ 0.313 µM) | MIC (rapid-growing NTM): 0.03 to 0.5 µg/mL (≈ 0.0783 to 1.3 µM) | MIC (M. intracellulare 1956): 2 µg/mL | MIC [3]: 0.03 µg/mL (≈ 0.0783 µM) | MIC range [4]: ≤ 0.03 to 0.5 µg/mL | MIC90 [4]: 0.25 µg/mL (≈ 0.652 µM) | MIC (S. pyogenes ATCC 19615): > 64 µg/mL | MIC (M. chimaera 1502055): 1 µg/mL | MIC90 (Other NTM (n = 12)): 0.5 µg/mL (≈ 1.3 µM) | MIC range (Other NTM (n = 12)): 0.12 to 0.5 µg/mL | time-kill kinetics, result in words (Mabs 21): bactericidal activity | drop in Mabs in time-kill assay (Mabs 21; after 5 days): 2 Log10 CFU | effect against Mabs in time-kill assay (Mabs 21; for 3 days): bacteriostatic | MIC [5]: 64 µg/mL (≈ 167 µM) | MIC (C. albicans ATCC 10231): > 64 µg/mL | Protein (serum) binding [6]: >95% | MIC [10]: > 32 µg/mL | MIC (S. pneumoniae ATCC 49619): 32 µg/mL (≈ 83.5 µM) | MIC ([7]; 168 h): ≤ 0.12 µg/mL | MIC ([7]; read-out: MIC against Mtb): ≤ 0.12 µg/mL | MIC (M. avium complex (MAC)): 1 to 2 µg/mL (≈ 2.61 to 5.22 µM) | MIC (P. aeruginosa ATCC 35151): 64 µg/mL (≈ 167 µM) | IC50 at 72 h (HepG2 cytotoxicity, 72 h): > 10 µM | IC50 at 72 h (HepG2 cytotoxicity, 72 h; value in brackets): > 4 µg/mL | solubility at 24 h (physchem): < 3 µM | MIC (S. aureus ATCC 29213): > 64 µg/mL | MIC [8]: > 64 µg/mL | MIC (M. fortuitum 41): 0.06 µg/mL (≈ 0.157 µM) | MIC (M. abscessus 1; [12]): 1 µg/mL | MIC (M. abscessus 1; M. abscessus 1, MHB): 0.06 µg/mL (≈ 0.157 µM) | interaction when combined with other antimycobacterial agents [11]: additivity and no antagonism | inhibition at 10 µM (CYP2B6): 39% | inhibition at 10 µM (CYP3A): 26% | MIC (M. abscessus 79; [13]): 0.5 µg/mL | MIC (M. abscessus 79; M. abscessus 79, MHB): 0.03 µg/mL (≈ 0.0783 µM) | MIC (M. abscessus ATCC 19977): 0.03 µg/mL (≈ 0.0783 µM) | MIC (M. avium 101): 2 µg/mL | MIC (M. abscessus 21; [14]): 1 µg/mL | MIC (M. abscessus 21; M. abscessus 21, MHB): 0.03 µg/mL (≈ 0.0783 µM) | MIC (M. chelonae 93): 0.03 µg/mL (≈ 0.0783 µM) | MIC [9]: 0.03 µg/mL (≈ 0.0783 µM) | MIC (E. faecalis ATCC 29212): > 64 µg/mL
